Among the data in ChEMBL document CHEMBL1137447 (Bioorg Med Chem, 2007) are IC50, Ratio IC50 and Activity values, retold here.

The structures appear in SMILES notation. pIC50: −log10 of the molar value.

Experiment [1] concerns the target T1, Prostaglandin G/H synthase 1 (Ovis aries, UniProt P05979).
T1 sequence (P05979 whole entry): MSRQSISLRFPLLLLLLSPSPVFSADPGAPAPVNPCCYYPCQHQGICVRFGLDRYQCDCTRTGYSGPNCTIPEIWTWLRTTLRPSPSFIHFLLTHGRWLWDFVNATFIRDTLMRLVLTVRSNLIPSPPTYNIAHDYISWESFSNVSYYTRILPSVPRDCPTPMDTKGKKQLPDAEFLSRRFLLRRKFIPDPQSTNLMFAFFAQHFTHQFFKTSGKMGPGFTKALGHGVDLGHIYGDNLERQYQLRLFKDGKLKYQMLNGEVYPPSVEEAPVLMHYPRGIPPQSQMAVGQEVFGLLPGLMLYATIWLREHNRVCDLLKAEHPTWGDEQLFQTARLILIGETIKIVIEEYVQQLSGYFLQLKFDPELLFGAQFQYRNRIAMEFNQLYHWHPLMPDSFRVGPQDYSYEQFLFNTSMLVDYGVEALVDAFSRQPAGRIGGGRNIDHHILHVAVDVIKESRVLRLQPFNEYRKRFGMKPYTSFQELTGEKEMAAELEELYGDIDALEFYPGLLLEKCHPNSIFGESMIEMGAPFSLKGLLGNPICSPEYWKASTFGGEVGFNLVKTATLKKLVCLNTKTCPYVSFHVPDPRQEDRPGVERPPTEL
As to the kind of experiment: Inhibition of ovine COX1 by enzyme immuno assay.

The species entered for the next experiment is Ovis aries. As to the kind of experiment: Selectivity index, ratio of IC50 for ovine COX1 to IC50 for ovine COX2.
Experiment [2] in a line: Effect on nitric oxide release in pH 7.4 PBS buffer at 37 degC after 1.5 hrs. Type of experiment: functional.
Experiment [3] in a line: Effect on nitric oxide release in pH 7.4 PBS buffer in presence of rat serum at 37 degC after 1.5 hrs. Type of experiment: functional.

As for `CC(=O)Nc1ccc(/C(=C\c2ccc(S(C)(=O)=O)cc2)C(=O)OCO/N=[N+](/[O-])N2CCCC2)cc1`, the pIC50 (commonly the IC50 on a negative log10 scale, so that one unit is a factor of ten) in experiment [1] was below 4.00. Further, the Ratio IC50 in the experiment filed under Ovis aries was above 106. In addition, the Activity was 9.9% in experiment [2] and 73% in experiment [3].

`CS(=O)(=O)c1ccc(/C=C(/C(=O)OCO/N=[N+](/[O-])N2CCCC2)c2ccc(F)cc2)cc1` showed a pIC50 in experiment [1] below 4.00. Besides, the Ratio IC50 in the experiment listed under Ovis aries is above 9.2. Further, the Activity is 11.3% in experiment [2] and 67.1% in experiment [3].

Regarding `CS(=O)(=O)c1ccc(/C=C(/C(=O)OCO/N=[N+](/[O-])N2CCCC2)c2cccc(Br)c2)cc1`, the pIC50 in experiment [1] was 5.60. In the experiment listed under Ovis aries, the Ratio IC50 is 0.22. In addition, the Activity was 6.9% in experiment [2] and 48.6% in experiment [3].

In experiment [1], `CCN(CC)/[N+]([O-])=N\OCOC(=O)/C(=C/c1ccc(S(C)(=O)=O)cc1)c1cccc(Br)c1` had a pIC50 of 5.96. Further, the Ratio IC50 in the experiment filed under Ovis aries worked out at 0.03. Also, the results for the Activity in experiment [2] and in experiment [3] were 3.2% and 59.2%, respectively.

Molecule `CCN(CC)/[N+]([O-])=N\OCOC(=O)/C(=C/c1ccc(S(C)(=O)=O)cc1)c1ccc(F)cc1` showed a pIC50 in experiment [1] of 6.00. Moreover, the Ratio IC50 in the experiment listed under Ovis aries stood at 0.43. Besides, the Activity in experiment [2] amounted to 7.1%; in experiment [3], 75.3%.

Take `CCN(CC)/[N+]([O-])=N/O`: the figures for the Activity in experiment [2] and in experiment [3] were 85% and 85.1%, respectively.

Consider `CCN(CC)/[N+]([O-])=N\OCOC(=O)/C(=C/c1ccc(S(C)(=O)=O)cc1)c1ccc(NC(C)=O)cc1`, for which the pIC50 in experiment [1] was below 4.00. For the same molecule, the Ratio IC50 in the experiment listed under Ovis aries was above 5.9. Also, the Activity in experiment [2] was 6.5%; in experiment [3], 70.4%.
